What was measured:
Format in all cases: cell-based
[1] = system: rat cerebellar granule neurons; assay: Electrophysiology: voltage-clamped whole-cell patch recordings of currents induced by laminin-1-derived peptides and fusion proteins; conditions: whole-cell patch clamp, neurons on laminin-1 substratum
Source text: Sixteen-day pregnant Sprague-Dawley female rats were obtained from Taconic Farms, and maintained at the animal facility of National Institute of Alcohol Abuse and Alcoholism (NTH), fed with NTH-31 diet, containing 20,000 IU/kg vitamin A after autoclaving. The rats were allowed to give birth, and cerebellar tissues of 3-day-old female pups were aseptically isolated as described previously (Matsuzawa et al., 1996a). A suspension of single cells was obtained by trypsinizing the cerebella as described elsewhere (Liesi and Wright, 1996), after which 10^5 cells were plated on 22 mm glass coverslip pre-coated with laminin-1. The cells were incubated in an atmosphere of 95% air/5% CO2 at +37° C. in RPMI 1640 culture medium supplemented with penicillin and streptomycin and 200 μM L-glutamine. After 24 hrs, the cells were used for electrophysiology.
Recordings were done at room temperature using a List EPC-7 patch-clamp amplifier in voltage-clamped whole-cell patch configuration as described previously (Liesi and Wright, 1996). Pipettes were pulled from borosilicate glass and lightly fire polished. Experiments were performed at room temperature. Whole-cell currents were recorded on a Gould 2400S strip chart recorder. Cell membrane potential was clamped at −40 mV unless otherwise noted. All bath solutions were applied through pinch-valves that controlled the flow from multiple reservoirs to a single 200 μm ID barrel of fused silica. Standard bath solution was RPMI 1640, buffered with 10 mM HEPES (pH 7.4). The standard pipette solution contained (in mM): CsMeSO4 100, CsCl 15, BAPTA 5, HEPES 10 (pH KOH-adjusted to 7.2). Tests for reversal potentials were conducted in low K^+ bath solution containing (in mM): NaCl 150, KCl 5, CaCl2 1, HEPES 10 (pH adjusted to 7.2 with NaOH) and a high K^+ bath solution, containing (in mM): NaCl 115, KCl 40, CaCl2 1, HEPES 10 (pH adjusted to 7.2 with NaOH). All bath solutions contained 300 nM TTX. […] Nernst reversal potentials were calculated according to Hille (1992). […]

human CNS neurons = assay: Attachment and neurite outgrowth of human embryonic CNS neurons on synthetic peptides coupled to glass; conditions: 1 μg/ml, peptide coupled to glass, 24 hrs
Protocol: The cells were dissociated by trituration in a sterile culture medium (RPMI 1640) containing penicillin (100 U/ml), streptomycin (100 μg/ml) and 200 μM L-glutamine. The dissociated cells were plated on glass coverslips pre-coated (Liesi et al., 1989) with mouse laminin-1 (Boehringer-Mannheim, Germany) or with the peptides KDI-gc and RDIAEIIKDI-gc (SEQ ID NO: 1), as described elsewhere (Matsuzawa et al., 1996b). The peptides were from the Multiple Peptide Systems (La Jolla, Calif.). The cultures were maintained for 24 hrs, fixed in 2% paraformaldehyde, and processed for immunocytochemistry.
Immunocytochemistry for neuron specific tubulin isoform TUJ1 was performed as described elsewhere (Liesi et al., 2001). In short, the cells were permeabilized in methanol for 5 min at −20° C., washed in PBS and incubated with monoclonal TUJ1-antibodies for 1 hr at room temperature. The antibody was of high specificity and was used at 1:500 dilution. After immunocytochemistry, the coverslips were mounted in PBS:glycerol (1:1) and viewed with Olympus Provis fluorescence microscope with appropriate filter combinations.

[2] = system: human embryonic neocortical neurons; assay: Survival of human embryonic neocortical neurons on injured glial cells of the human spinal cord; conditions: 1 μg/ml soluble peptide, 72 hrs, vs lesion control
Source text: The CNS tissues were first placed in cold saline. The spinal cord tissues were identified under a stereomicroscope, and carefully freed of meninges. To obtain monolayer cultures of human spinal cord glial cells, the cells were dissociated by mechanical trituration using a Pasteur-pipette, and placed in Petri dishes (Corning, N.Y., USA) containing 10% fetal calf serum (Hyclone, Logan, UH) in DMEM-F12 (Gibco, U.K.) supplemented with penicillin and streptomycin as described (Liesi et al. 2001).
Human embryonic spinal cord glial cells were cultured till confluency in 10% fetal bovine serum as described (Liesi et al., 2001). The confluent cultures were trypsinized and cells replated at 100 000 cells/22 mm glass coverslip, and grown till confluency. The confluent cultures were changed into normal adult human serum, and injured by using a 18 G gauge sterile needle. The KDI peptide was added at 1 μg/ml (3 μM) and at 10 μg/ml (30 μM) concentration and the P1543 peptide (p20) was added at a concentration of 1 μM, and 50-100 000 freshly isolated human embryonic neocortical neurons were added on the glial cells. The control cultures had neurons added either without the peptide or the lesion. The cells were cultured for 72 hrs in 5% CO2/95% air at +37° C., and fixed for quantitation of neurons and measurement of their neuritic lengths. The neurons on glial monolayers were visualized by immunostaining using mouse monoclonal antibodies against a neuron-specific tubulin isoform (TUJ1). The results were evaluated by counting neurons in six random fields on 3 different coverslip per experiment. In this way, more than 300 neurons were counted per experiment. Statistical analysis of the results was performed using one-way analysis of Varians (ANOVA) and Student-Newman-Keuls multiple comparisons test on the Instat (v2.03) program (GraphPad, San Diego, Calif.).

Substance | induction of currents in cerebellar granule neurons [1] | attachment and neurite outgrowth of human CNS neurons (human CNS neurons) | attachment and neurite outgrowth of neocortical neurons on lesioned spinal cord glial cells [2]
EIIKDI [6-amino acid peptide truncated from P1543] | induced currents | – | –
RDIAEIIKDI [P1543, C-terminal neurite outgrowth decapeptide of the γ1-chain of laminin-1] | induced electrical currents | supported attachment and neurite outgrowth | significant (p<0.001) improvement

Reference: patent publication US7741436B2, “Biologically active peptides and their use for repairing injured nerves” (priority 2001, dated 2010)
